{
  "source": "patent US20100203531A1",
  "about": "“PREDICTING RESPONSIVENESS TO TEMOZOLOMIDE” (priority 2007, published 2010)",
  "assay_type_in_all_cases": "in vivo, human",
  "key": {"[1]": {"tested_on": "GBM8 xenograft", "assay": "Orthotopic intracranial xenograft survival, GBM8", "method": "(§1) In vivo sensitivity of GBM lines to TMZ: To address whether MGMT methylation or polypeptide expression status are predictive of TMZ responsiveness, the effects of TMZ therapy on survival were evaluated in the panel of xenografts using an orthotopic therapy model. Mice with established intracranial xenografts were treated with 66 mg/kg TMZ or placebo daily for 5 days by oral gavage. This TMZ dosing regimen provides the equivalent dose-exposure to TMZ as the standard adjuvant TMZ dosing regimen for GBM patients of 200 mg/m^2×5 days. All mice were followed until reaching a moribund state, and the relative prolongation of survival following TMZ treatment was calculated for each line relative to placebo treatment (Table 1). […] Further analysis of the relationship between TMZ responsiveness and MGMT methylation status in 17 xenograft lines was conducted by comparing the distribution of median survival prolongation results for methylation-positive and methylation-negative groups of xenografts. From this analysis, MGMT methylation was modestly associated with increased TMZ sensitivity (FIG. 2, p=0.039, two-sample rank sum test). In a similar analysis of MGMT polypeptide expression levels, high levels of MGMT polypeptide expression were invariably associated with relative TMZ resistance, and the absence of MGMT polypeptide expression was associated with significant TMZ sensitivity (r=−0.73, p=0.005). […] While p53, PTEN and EGFR function have been linked to TMZ sensitivity in some models, no correlation between genetic alterations of these genes and TMZ responsiveness was observed.\n(§2) Orthotopic model: Therapy evaluations were conducted using an orthotopic tumor model as described elsewhere (Sarkaria et al., Clin Cancer Res, 12:2264-2271 (2006), Giannini et al., Neuro-Oncology, 7:164-176, (2005)). Athymic nude mice (NCI, Frederick, Md.) with established intracranial tumors were randomized into groups of 8 to 10 mice each and treatment was initiated 2 weeks before mice were expected to become moribund. TMZ was purchased from the Mayo Clinic Pharmacy, suspended in Ora-plus (Paddock Laboratories, Minneapolis. MN), and administered by oral gavage at 66 mg/kg for 5 days. Mice were observed daily and euthanized when moribund.\nStatistical analysis: Survival distributions were estimated using the Kaplan-Meier method. The log rank test was used to compare survival across treatment groups. All GBM experiments were pooled and Classification and Regression Tree analysis (CART) was used to identify which CpG sites in the MS-PCR assay (CpG sites 78-82, 86-89) were predictive of overall survival in TMZ treated mice. The two-sample rank sum test was used to compare relative differences in survival relative to MGMT MS-PCR status or CpG89 methylation status. […]"}, "[2]": {"tested_on": "GBM10 xenograft", "assay": "Orthotopic intracranial xenograft survival, GBM10", "method": "as §1\nas §2, with “MN), and administered by oral gavage at 66 mg/kg for 5 days.” left out\nStatistical analysis: Survival distributions were estimated using the Kaplan-Meier method. The log rank test was used to compare survival across treatment groups. All GBM experiments were pooled and Classification and Regression Tree analysis (CART) was used to identify which CpG sites in the MS-PCR assay (CpG sites 78-82, 86-89) were predictive of overall survival in TMZ treated mice. The two-sample rank sum test was used to compare relative differences in survival relative to MGMT MS-PCR status or CpG89 methylation status. Spearman's correlation coefficient was used to assess the association of relative median survival and protein expression levels of MGMT relative to 13-actin."}, "[3]": {"tested_on": "GBM46 xenograft", "assay": "Orthotopic intracranial xenograft survival, GBM46", "method": "In vivo sensitivity of GBM lines to TMZ: To address whether MGMT methylation or polypeptide expression status are predictive of TMZ responsiveness, the effects of TMZ therapy on survival were evaluated in the panel of xenografts using an orthotopic therapy model. Mice with established intracranial xenografts were treated with 66 mg/kg TMZ or placebo daily for 5 days by oral gavage. This TMZ dosing regimen provides the equivalent dose-exposure to TMZ as the standard adjuvant TMZ dosing regimen for GBM patients of 200 mg/m^2×5 days. All mice were followed until reaching a moribund state, and the relative prolongation of survival following TMZ treatment was calculated for each line relative to placebo treatment (Table 1). […] Further analysis of the relationship between TMZ responsiveness and MGMT methylation status in 17 xenograft lines was conducted by comparing the distribution of median survival prolongation results for methylation-positive and methylation-negative groups of xenografts. From this analysis, MGMT methylation was modestly associated with increased TMZ sensitivity (FIG. 2, p=0.039, two-sample rank sum test). […]"}},
  "data": [
    {"smiles": "Cn1nnc2c(C(N)=O)ncn2c1=O", "note": "[TMZ, Temozolomide]", "values": [
      {"measurement": "Survival Prolongation", "setting": "[1]; GBM8, median survival relative to placebo, 66 mg/kg oral for 5 days (Table 3)", "value": 110, "unit": "%"},
      {"measurement": "Survival benefit", "setting": "[1]; GBM8, prolongation of median survival relative to placebo, TMZ 66 mg/kg oral x5 days", "value": 110, "unit": "%"},
      {"measurement": "TMZ median survival", "setting": "[1]; GBM8 intracranial xenograft, nude mice, TMZ 66 mg/kg oral daily x5 days", "value": 124},
      {"measurement": "Temozolomide median survival", "setting": "[1]; GBM8 intracranial, athymic nude mice, 66 mg/kg oral gavage for 5 days (Table 3)", "value": 124},
      {"measurement": "Survival Prolongation", "setting": "[2]; GBM10, median survival relative to placebo, 66 mg/kg oral for 5 days (Table 3)", "value": 34, "unit": "%"},
      {"measurement": "Survival benefit", "setting": "[2]; GBM10, prolongation of median survival relative to placebo, TMZ 66 mg/kg oral x5 days", "value": 34, "unit": "%"},
      {"measurement": "Survival benefit", "setting": "[2]; GBM10 generation 8, TMZ 120 mg/kg for 5 days, intracranial", "value": 6, "unit": "%"},
      {"measurement": "Survival benefit", "setting": "[2]; GBM10 generation 19, TMZ 66 mg/kg for 5 days, intracranial", "value": 34, "unit": "%"},
      {"measurement": "TMZ median survival", "setting": "[2]; GBM10 intracranial xenograft, nude mice, TMZ 66 mg/kg oral daily x5 days", "value": 55},
      {"measurement": "Temozolomide median survival", "setting": "[2]; GBM10 intracranial, athymic nude mice, 66 mg/kg oral gavage for 5 days (Table 3)", "value": 55},
      {"measurement": "Survival benefit", "setting": "[3]; GBM46, prolongation of median survival relative to placebo, TMZ 66 mg/kg oral x5 days", "value": 0, "unit": "%"},
      {"measurement": "TMZ median survival", "setting": "[3]; GBM46 intracranial xenograft, nude mice, TMZ 66 mg/kg oral daily x5 days", "value": 50}
    ]}
  ]
}
